Measured values reported in patent US20260297081A1, “COMPOUNDS AND METHODS OF TREATING CANCERS” (Cullgen Inc., priority 2023, published 2026).

Biological target: CDK4 (Homo sapiens, UniProt P11802+Q16531)
Test: CDK4 percentage degradation in Calu-1 cells (Table 6)
Assay type: cell-based
Parameters: Cells that express cyclin D1-3 and CDK4/6 proteins were treated with heterobifunctional compounds; endogenous in cells; host or cells: Calu-1
Settings: 16 hours; for inhibition at 0.04 µM: 40 nM; for inhibition at 0.2 µM: 200 nM
How it was run: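 Percentage degradation of Cyclin D1 and CDK4 derived from densitometry of ECL Western blots on lysates of Calu-1 cells. Treatment was 16 h with compound at either 40 nM or 200 nM.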

Chain of CDK4 (P11802 2-303 limits assumed): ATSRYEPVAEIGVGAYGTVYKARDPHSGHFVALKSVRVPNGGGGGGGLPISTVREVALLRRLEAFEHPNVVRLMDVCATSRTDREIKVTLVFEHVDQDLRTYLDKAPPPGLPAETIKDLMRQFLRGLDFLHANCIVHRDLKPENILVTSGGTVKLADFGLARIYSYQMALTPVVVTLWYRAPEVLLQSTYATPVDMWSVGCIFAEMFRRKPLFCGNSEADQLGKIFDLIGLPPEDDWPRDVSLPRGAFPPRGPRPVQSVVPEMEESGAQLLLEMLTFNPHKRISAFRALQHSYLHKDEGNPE
Chain of CDK4 (P24385 whole entry partner): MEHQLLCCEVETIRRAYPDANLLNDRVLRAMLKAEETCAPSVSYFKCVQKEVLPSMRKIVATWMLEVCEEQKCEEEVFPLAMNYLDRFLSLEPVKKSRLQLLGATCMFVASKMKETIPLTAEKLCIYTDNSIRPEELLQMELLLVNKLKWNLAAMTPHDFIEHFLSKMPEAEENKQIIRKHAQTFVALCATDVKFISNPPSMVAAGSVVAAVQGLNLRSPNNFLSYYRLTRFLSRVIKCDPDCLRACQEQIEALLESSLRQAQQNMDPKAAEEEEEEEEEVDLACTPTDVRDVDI
Chain of CDK4 (Q16531 2-1140 limits assumed): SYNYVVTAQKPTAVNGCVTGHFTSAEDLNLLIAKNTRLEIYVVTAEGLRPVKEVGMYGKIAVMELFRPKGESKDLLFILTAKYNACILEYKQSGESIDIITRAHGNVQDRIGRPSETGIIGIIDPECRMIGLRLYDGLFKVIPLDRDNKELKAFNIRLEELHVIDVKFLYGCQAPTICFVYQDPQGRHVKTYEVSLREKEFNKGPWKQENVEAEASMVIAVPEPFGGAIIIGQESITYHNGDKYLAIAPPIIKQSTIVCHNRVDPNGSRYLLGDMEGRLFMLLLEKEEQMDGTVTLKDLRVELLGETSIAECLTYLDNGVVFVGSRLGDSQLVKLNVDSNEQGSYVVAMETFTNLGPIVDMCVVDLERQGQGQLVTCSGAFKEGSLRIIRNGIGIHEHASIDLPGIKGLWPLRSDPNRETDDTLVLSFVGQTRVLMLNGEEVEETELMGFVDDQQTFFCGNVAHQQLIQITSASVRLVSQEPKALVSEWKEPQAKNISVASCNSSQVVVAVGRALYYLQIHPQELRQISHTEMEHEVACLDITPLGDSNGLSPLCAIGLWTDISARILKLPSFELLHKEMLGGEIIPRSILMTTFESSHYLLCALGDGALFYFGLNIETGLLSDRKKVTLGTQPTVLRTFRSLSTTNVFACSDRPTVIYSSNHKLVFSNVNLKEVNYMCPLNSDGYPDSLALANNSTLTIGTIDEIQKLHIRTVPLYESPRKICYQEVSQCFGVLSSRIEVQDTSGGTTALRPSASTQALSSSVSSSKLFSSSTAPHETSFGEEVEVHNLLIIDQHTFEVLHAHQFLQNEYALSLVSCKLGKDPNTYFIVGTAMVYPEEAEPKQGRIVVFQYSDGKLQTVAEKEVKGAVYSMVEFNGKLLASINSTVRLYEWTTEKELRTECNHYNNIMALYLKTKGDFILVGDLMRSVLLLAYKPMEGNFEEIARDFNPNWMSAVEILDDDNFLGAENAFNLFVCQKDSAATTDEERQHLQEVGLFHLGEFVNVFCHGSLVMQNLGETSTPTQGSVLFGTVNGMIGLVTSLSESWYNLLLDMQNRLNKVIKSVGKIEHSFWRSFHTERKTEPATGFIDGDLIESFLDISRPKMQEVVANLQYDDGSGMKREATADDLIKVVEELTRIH

SMILES | inhibition at 0.04 µM | inhibition at 0.2 µM
CNc1ccc(C(=O)Nc2ccc(N(C)C)nn2)c(NC[C@H]2CC[C@H](CNC(=O)N3CCN(c4ccc(Nc5ncc6c(C)c(C(C)=O)c(=O)n(C7CCCC7)c6n5)nc4)CC3)CC2)n1 [CPD-169, 4-(6-((6-acetyl-8-cyclopentyl-5-methyl-7-oxo-7,8-dihydropyrido[2,3-d]pyrimidin-2-yl)amino)pyridin-3-yl)-N-((trans-4-(((3-((6-(dimethylamino)pyridazin-3-yl)carbamoyl)-6-(methylamino)pyridin-2-yl)amino)methyl)cyclohexyl)menthyl)piperazine-1-carboxamide] | < 30% | 30 to 50%
CNc1ccc(C(=O)Nc2ccc(N(C)C)nn2)c(NC2CC(CNC(=O)C3(CN4CCN(c5ccc(Nc6ncc7c(C)c(C(C)=O)c(=O)n(C8CCCC8)c7n6)nc5)CC4)CC3)C2)n1 (centres unmarked) [CPD-172, 2-((3-((1-((4-(6-((6-acetyl-8-cyclopentyl-5-methyl-7-oxo-7,8-dihydropyrido[2,3-d]pyrimidin-2-yl)amino)pyridin-3-yl)piperazin-1-yl)methyl)cyclopropane-1-carboxamido)methyl)cyclobutyl)amino)-N-(6-(dimethylamino)pyridazin-3-yl)-6-(methylamino)nicotinamide] | 50 to 80% | 50 to 80%
CNc1ccc(C(=O)Nc2cccc(C3CC3)n2)c(NC2CC3(C2)CN(C(=O)C(C)(C)N2CCN(c4ccc(Nc5ncc6c(C)c(C(C)=O)c(=O)n(C7CCCC7)c6n5)nc4)CC2)C3)n1 [CPD-175, 2-((2-(2-(4-(6-((6-acetyl-8-cyclopentyl-5-methyl-7-oxo-7,8-dihydropyrido[2,3-d]pyrimidin-2-yl)amino)pyridin-3-yl)piperazin-1-yl)-2-methylpropanoyl)-2-azaspiro[3.3]heptan-6-yl)amino)-N-(6-cyclopropylpyridin-2-yl)-6-(methylamino)nicotinamide] | < 30% | 50 to 80%
CNc1ccc(C(=O)Nc2cccc(C)n2)c(NC2CC3(C2)CN(C(=O)C(C)(C)N2CCN(c4ccc(Nc5ncc6c(C)c(C(C)=O)c(=O)n(C7CCCC7)c6n5)nc4)CC2)C3)n1 [CPD-176, 2-((2-(2-(4-(6-((6-acetyl-8-cyclopentyl-5-methyl-7-oxo-7,8-dihydropyrido[2,3-di]pyrimidin-2-yl)amino)pyridin-3-yl)piperazin-1-yl)-2-methylpropanoyl)-2-azaspiro[3.3]heptan-6-yl)amino)-6-(methylamino)-N-(6-methylpyridin-2-yl)nicotinamide] | < 30% | 50 to 80%
CNc1cccc(NC(=O)c2ccc(NC)nc2NC2CC3(CC(NC(=O)CN4CCN(c5ccc(Nc6ncc7c(C)c(C(C)=O)c(=O)n(C8CCCC8)c7n6)nc5)CC4)C3)C2)n1 (centres unmarked) [CPD-181, 2-((6-(2-(4-(6-((6-acetyl-8-cyclopentyl-5-methyl-7-oxo-7,8-dihydropyrido[2,3-d]pyrimidin-2-yl)amino)pyridin-3-yl)piperazin-1-yl)acetamido)spiro[3.3]heptan-2-yl)amino)-6-(methylamino)-N-(6-(methylamino)pyridin-2-yl)nicotinamide] | 30 to 50% | 50 to 80%
CNc1ccc(C(=O)Nc2cccc(C(F)F)n2)c(NC2CC3(CC(NC(=O)CN4CCN(c5ccc(Nc6ncc7c(C)c(C(C)=O)c(=O)n(C8CCCC8)c7n6)nc5)CC4)C3)C2)n1 (centres unmarked) [CPD-184, 2-((6-(2-(4-(6-((6-acetyl-8-cyclopentyl-5-methyl-7-oxo-7,8-dihydropyrido[2,3-d]pyrimidin-2-yl)amino)pyridin-3-yl)piperazin-1-yl)acetamido)spiro[3.3]heptan-2-yl)amino)-N-(6-(difluoromethyl)pyridin-2-yl)-6-(methylamino)nicotinamide] | 50 to 80% | 50 to 80%
CNc1ccc(C(=O)Nc2ccc(N(C)C)nn2)c(NCC2CC(CNC(=O)CN3CCN(c4ccc(Nc5ncc6c(C)c(C(C)=O)c(=O)n(C7CCCC7)c6n5)nc4)CC3)C2)n1 (centres unmarked) [CPD-188, 2-(((3-((2-(4-(6-((6-acetyl-8-cyclopentyl-5-methyl-7-oxo-7,8-dihydropyrido[2,3-d]pyrimidin-2-yl)amino)pyridin-3-yl)piperazin-1-yl)acetamido)methyl)cyclobutyl)methyl)amino)-N-(6-(dimethylamino)pyridazin-3-yl)-6-(methylamino)nicotinamide] | 50 to 80% | 50 to 80%
CC(=O)c1c(C)c2cnc(Nc3ccc(N4CCN(CC(=O)NC5CC6(C5)CC(Nc5nc(C)ccc5C(=O)Nc5cccc(C)n5)C6)CC4)cn3)nc2n(C2CCCC2)c1=O (centres unmarked) [CPD-191, 2-((6-(2-(4-(6-((6-acetyl-8-cyclopentyl-5-methyl-7-oxo-7,8-dihydropyrido[2,3-d]pyrimidin-2-yl)amino)pyridin-3-yl)piperazin-1-yl)acetamido)spiro[3.3]heptan-2-yl)amino)-6-methyl-N-(6-methylpyridin-2-yl)nicotinamide] | < 30% | 30 to 50%
CC(=O)c1c(C)c2cnc(Nc3ccc(N4CCN(CC(=O)NC5CC6(C5)CC(Nc5nc(C)ccc5C(=O)Nc5cc(C)on5)C6)CC4)cn3)nc2n(C2CCCC2)c1=O (centres unmarked) [CPD-192, ((6-(2-(4-(6-((6-acetyl-8-cyclopentyl-5-methyl-7-oxo-7,8-dihydropyrido[2,3-d]pyrimidin-2-yl)amino)pyridin-3-yl)piperazin-1-yl)acetamido)spiro[3.3]heptan-2-yl)amino)-6-methyl-N-(5-methylisoxazol-3-yl)nicotinamide] | < 30% | < 30%

Other lines, results leading:

inhibition at 0.04 µM | inhibition at 0.2 µM | SMILES
< 30% | 50 to 80% | CNc1ccc(C(=O)Nc2ccc(N(C)C)c(C3CC3)n2)c(NC2CC3(CC(NC(=O)CN4CCN(c5ccc(Nc6ncc7c(C)c(C(C)=O)c(=O)n(C8CCCC8)c7n6)nc5)CC4)C3)C2)n1 (centres unmarked) [CPD-177, 2-((6-(2-(4-(6-((6-acetyl-8-cyclopentyl-5-methyl-7-oxo-7,8-dihydropyrido[2,3-d]pyrimidin-2-yl)amino)pyridin-3-yl)piperazin-1-yl)acetamido)spiro[3.3]heptan-2-yl)amino)-N-(6-cyclopropyl-5-(dimethylamino)pyridin-2-yl)-6-(methylamino)nicotinamide]
50 to 80% | 50 to 80% | CNc1ccc(C(=O)Nc2cn(C)c(C)n2)c(NC2CC3(CC(NC(=O)CN4CCN(c5ccc(Nc6ncc7c(C)c(C(C)=O)c(=O)n(C8CCCC8)c7n6)nc5)CC4)C3)C2)n1 (centres unmarked) [CPD-179, 2-((6-(2-(4-(6-((6-acetyl-8-cyclopentyl-5-methyl-7-oxo-7,8-dihydropyrido[2,3-d]pyrimidin-2-yl)amino)pyridin-3-yl)piperazin-1-yl)acetamido)spiro[3.3]heptan-2-yl)amino)-N-(1,2-dimethyl-1H-imidazol-4-yl)-6-(methylamino)nicotinamide]
< 30% | 30 to 50% | CNc1ccc(C(=O)Nc2cccc(N)n2)c(NC2CC3(CC(NC(=O)CN4CCN(c5ccc(Nc6ncc7c(C)c(C(C)=O)c(=O)n(C8CCCC8)c7n6)nc5)CC4)C3)C2)n1 (centres unmarked) [CPD-180, 2-((6-(2-(4-(6-((6-acetyl-8-cyclopentyl-5-methyl-7-oxo-7,8-dihydropyrido[2,3-d]pyrimidin-2-yl)amino)pyridin-3-yl)piperazin-1-yl)acetamido)spiro[3.3]heptan-2-yl)amino)-N-(6-aminopyridin-2-yl)-6-(methylamino)nicotinamide]
30 to 50% | 30 to 50% | CNc1ccc(C(=O)Nc2ccc(C)c(C)n2)c(NC2CC3(CC(NC(=O)CN4CCN(c5ccc(Nc6ncc7c(C)c(C(C)=O)c(=O)n(C8CCCC8)c7n6)nc5)CC4)C3)C2)n1 (centres unmarked) [CPD-182, 2-((6-(2-(4-(6-((6-acetyl-8-cyclopentyl-5-methyl-7-oxo-7,8-dihydropyrido[2,3-d]pyrimidin-2-yl)amino)pyridin-3-yl)piperazin-1-yl)acetamido)spiro[3.3]heptan-2-yl)amino)-N-(5,6-dimethylpyridin-2-yl)-6-(methylamino)nicotinamide]
50 to 80% | 50 to 80% | CNc1ccc(C(=O)Nc2ccn(C)c2)c(NC2CC3(CC(NC(=O)CN4CCN(c5ccc(Nc6ncc7c(C)c(C(C)=O)c(=O)n(C8CCCC8)c7n6)nc5)CC4)C3)C2)n1 (centres unmarked) [CPD-183, 2-((6-(2-(4-(6-((6-acetyl-8-cyclopentyl-5-methyl-7-oxo-7,8-dihydropyrido[2,3-d]pyrimidin-2-yl)amino)pyridin-3-yl)piperazin-1-yl)acetamido)spiro[3.3]heptan-2-yl)amino)-N-(1-methyl-1H-pyrrol-3-yl)-6-(methylamino)nicotinamide]
< 30% | 30 to 50% | CNc1ccc(C(=O)Nc2ccc(N(C)C)nn2)c(NC2CC(CCC(=O)N3CCN(c4ccc(Nc5ncc6c(C)c(C(C)=O)c(=O)n(C7CCCC7)c6n5)nc4)CC3)C2)n1 (centres unmarked) [CPD-185, 2-((3-(3-(4-(6-((6-acetyl-8-cyclopentyl-5-methyl-7-oxo-7,8-dihydropyrido[2,3-d]pyrimidin-2-yl)amino)pyridin-3-yl)piperazin-1-yl)-3-oxopropyl)cyclobutyl)amino)-N-(6-(dimethylamino)pyridazin-3-yl)-6-(methylamino)nicotinamide]
< 30% | 50 to 80% | CNc1ccc(C(=O)Nc2ccc(N(C)C)nn2)c(NC2CN(C(=O)CN3CCN(c4ccc(Nc5ncc6c(C)c(C(C)=O)c(=O)n(C7CCCC7)c6n5)nc4)CC3)C2)n1 [CPD-187, 2-((1-(2-(4-(6-((6-acetyl-8-cyclopentyl-5-methyl-7-oxo-7,8-dihydropyrido[2,3-d]pyrimidin-2-yl)amino)pyridin-3-yl)piperazin-1-yl)acetyl)azetidin-3-yl)amino)-N-(6-(dimethylamino)pyridazin-3-yl)-6-(methylamino)nicotinamide]
